Measurements published in ChEMBL document CHEMBL1201862, “PubChem BioAssay data set” (2004).
Activity calls are given as the source filed them.

Experiments:
[1] = biological target: FAD-linked sulfhydryl oxidase ALR (Homo sapiens, UniProt P55789); assay: inhibitors of human ALR sulfhydryl oxidase, dose response, biochemical, H2O2 detection, luminescence, cherry-pick (AID 493248)
[2] = biological target: Glucose-6-phosphate 1-dehydrogenase (Homo sapiens, UniProt P11413); assay: human G6PD enzyme inhibitors, dose response, selectivity assay for P. falciparum G6PD inhibitor project, biochemical, fluorescence (AID 504792); type: functional
[3] = Luminescence Cell-Based Dose Response HTS to Identify Activators of Luciferase Translation or Activity in H4 […] Cells. [Related pubchem assays: 1829 (Project Summary), 1814 (Primary HTS)]; type: functional
[4] = Luminescence Cell-Based Dose Confirmation HTS to Identify Activators of 5'UTR Stem-Loop Driven Alpha-Synuclein mRNA Translation in H4 Neuroglioblastoma Cells. [Related pubchem assays: 1829 (Project Summary), 1814 (Primary HTS)]; type: functional
H4 = assay: Luminescence Cell-Based Dose Response HTS to Identify Activators of 5'UTR Stem-Loop Driven Prion Protein mRNA Translation in H4 Neuroglioblastoma Cells. [Related pubchem assays: 1829 (Project Summary), 1814 (Primary HTS)]; type: functional; settings: Homo sapiens
HeLa = assay: HeLa cell cytotoxicity, dose response, cytotoxicity control for MITF activator project, CellTiter-Glo luminescence, cherry-pick samples (AID 540259); type: functional, cell-based; settings: Homo sapiens
[5] = biological target: T1, Short transient receptor potential channel 4 (Mus musculus, UniProt Q9QUQ5); assay: mouse TRPC4 channel inhibitors, dose response, cell-based, HEK293 TRPC4/mu-opioid, Fluo-4 calcium (AID 434942); type: functional;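 further: potency of inhibitors blocking the TRPC4 calcium response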
T1 sequence (Q9QUQ5 whole entry): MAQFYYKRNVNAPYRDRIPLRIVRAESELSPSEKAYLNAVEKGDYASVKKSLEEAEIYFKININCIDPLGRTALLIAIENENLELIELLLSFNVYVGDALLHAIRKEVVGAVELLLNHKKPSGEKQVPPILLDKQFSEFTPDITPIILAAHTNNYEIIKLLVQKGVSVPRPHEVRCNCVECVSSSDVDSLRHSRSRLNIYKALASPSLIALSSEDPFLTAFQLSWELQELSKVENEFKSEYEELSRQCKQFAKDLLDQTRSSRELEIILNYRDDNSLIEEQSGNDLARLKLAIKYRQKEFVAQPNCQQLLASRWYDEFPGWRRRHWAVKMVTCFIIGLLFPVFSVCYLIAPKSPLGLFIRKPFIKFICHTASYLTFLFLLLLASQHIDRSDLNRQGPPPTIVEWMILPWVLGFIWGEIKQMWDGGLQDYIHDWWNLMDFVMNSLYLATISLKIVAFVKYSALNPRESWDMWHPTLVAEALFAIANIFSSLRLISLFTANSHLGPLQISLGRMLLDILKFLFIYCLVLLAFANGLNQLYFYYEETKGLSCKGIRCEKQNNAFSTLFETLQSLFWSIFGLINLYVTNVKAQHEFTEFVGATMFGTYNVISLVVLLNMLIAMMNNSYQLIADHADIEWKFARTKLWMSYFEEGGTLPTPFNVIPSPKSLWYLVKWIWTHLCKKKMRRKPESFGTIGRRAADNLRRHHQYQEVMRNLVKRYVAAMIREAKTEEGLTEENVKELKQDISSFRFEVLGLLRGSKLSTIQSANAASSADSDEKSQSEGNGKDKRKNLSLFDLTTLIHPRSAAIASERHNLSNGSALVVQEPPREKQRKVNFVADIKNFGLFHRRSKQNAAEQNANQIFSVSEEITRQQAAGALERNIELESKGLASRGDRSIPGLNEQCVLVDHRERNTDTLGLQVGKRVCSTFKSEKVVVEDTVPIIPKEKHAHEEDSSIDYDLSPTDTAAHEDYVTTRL

[6] = inhibitors of Vif binding to APOBEC3G peptide, primary screen, biochemical, TR-FRET, GST-Vif 1-94, biotin-A3G peptide, dose response retest (AID 1117319); type: functional;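 further: TR-FRET signal of purified GST-Vif binding a biotinylated A3G peptide; inhibitors lower the FRET signal by blocking Vif and A3G binding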
[7] = biological target: T2, High affinity choline transporter 1 (Homo sapiens, UniProt Q9GZV3); assay: CHT inhibitors, dose response, cell-based, 5-point CRC, membrane potential dye (AID 504840); type: functional
T2 sequence (Q9GZV3 whole entry): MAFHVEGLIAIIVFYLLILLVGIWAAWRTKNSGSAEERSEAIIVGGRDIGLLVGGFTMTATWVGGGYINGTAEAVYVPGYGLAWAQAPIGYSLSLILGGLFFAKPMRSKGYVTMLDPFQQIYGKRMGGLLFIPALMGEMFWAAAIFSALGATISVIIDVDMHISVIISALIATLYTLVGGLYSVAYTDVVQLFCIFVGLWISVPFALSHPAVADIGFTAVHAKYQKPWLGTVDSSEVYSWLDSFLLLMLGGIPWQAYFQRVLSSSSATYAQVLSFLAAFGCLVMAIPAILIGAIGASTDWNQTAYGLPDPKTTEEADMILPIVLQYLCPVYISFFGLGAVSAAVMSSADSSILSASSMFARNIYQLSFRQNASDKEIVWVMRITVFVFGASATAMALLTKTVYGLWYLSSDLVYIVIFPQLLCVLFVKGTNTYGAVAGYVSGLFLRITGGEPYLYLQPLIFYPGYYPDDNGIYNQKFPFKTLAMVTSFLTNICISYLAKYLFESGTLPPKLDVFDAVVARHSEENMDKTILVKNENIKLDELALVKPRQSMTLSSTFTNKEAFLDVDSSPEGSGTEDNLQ

[8] = growth suppression of beta-catenin-knockout colon cells, dose response, cell-based, HCT116, human colon tumor (AID 1045); type: functional;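 further: HCT116 colon tumor cells with beta catenin knocked out; cells exposed to compound for 60 hours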
[9] = microbe, parasite or virus in culture; type: functional; settings: Mycobacterium tuberculosis
[10] = growth suppression of PTEN-null colon cells, dose response, cell-based, HCT116 PTEN knockout (AID 1047); type: functional;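 further: HCT116 colon tumor cells with PTEN knocked out; cells exposed to compound for 60 hours before readout; potency for loss of cell viability measured by luminescence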
Cytochrome P450 2D6 = Cytochrome P450 2D6 (Homo sapiens, UniProt P10635);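 further: CYP2D6 member of a cytochrome P450 panel assay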
Genome polyprotein = Genome polyprotein (dengue virus type 2, UniProt P29990); assay: Dengue-2 NS5 methyltransferase inhibitors, primary screen, biochemical, confirmation dose response (AID 588689); type: functional
[11] = biological target: 72 kDa type IV collagenase (Homo sapiens, UniProt P08253); assay: Dose Response validation of uHTS RPN11 inhibitor hits using a MMP-2 Fluorescence assay.; type: functional
Prothrombin = Prothrombin (Bos taurus, UniProt P00735); assay: thrombin inhibition, dose response, biochemical, fluorescence polarization, uHTS hits (AID 602369); type: functional
[12] = biological target: 26S proteasome non-ATPase regulatory subunit 14 (Homo sapiens, UniProt O00487); assay: inhibition of proteasome subunit RPN11 – biochemical, fluorescence polarization, uHTS hits, confirmation (AID 602368); type: functional
[13] = biological target: T3, DNA repair protein RAD52 homolog (Homo sapiens, UniProt P43351); type: functional, biochemical
T3 sequence (P43351 whole entry): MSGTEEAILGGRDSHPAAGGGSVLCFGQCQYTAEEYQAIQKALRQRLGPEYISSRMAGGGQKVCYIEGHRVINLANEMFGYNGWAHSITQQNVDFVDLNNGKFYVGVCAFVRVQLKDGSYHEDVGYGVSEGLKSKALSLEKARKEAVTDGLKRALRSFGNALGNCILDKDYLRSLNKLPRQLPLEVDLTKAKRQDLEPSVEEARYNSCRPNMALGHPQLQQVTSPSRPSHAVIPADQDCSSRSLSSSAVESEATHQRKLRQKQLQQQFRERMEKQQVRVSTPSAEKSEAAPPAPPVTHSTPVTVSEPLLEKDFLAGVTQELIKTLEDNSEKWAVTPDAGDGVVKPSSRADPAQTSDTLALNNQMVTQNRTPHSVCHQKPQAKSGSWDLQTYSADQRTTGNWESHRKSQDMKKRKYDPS

Vero = assay: cells; type: functional; settings: Chlorocebus sabaeus

Sequence of Glucose-6-phosphate 1-dehydrogenase (P11413 whole entry): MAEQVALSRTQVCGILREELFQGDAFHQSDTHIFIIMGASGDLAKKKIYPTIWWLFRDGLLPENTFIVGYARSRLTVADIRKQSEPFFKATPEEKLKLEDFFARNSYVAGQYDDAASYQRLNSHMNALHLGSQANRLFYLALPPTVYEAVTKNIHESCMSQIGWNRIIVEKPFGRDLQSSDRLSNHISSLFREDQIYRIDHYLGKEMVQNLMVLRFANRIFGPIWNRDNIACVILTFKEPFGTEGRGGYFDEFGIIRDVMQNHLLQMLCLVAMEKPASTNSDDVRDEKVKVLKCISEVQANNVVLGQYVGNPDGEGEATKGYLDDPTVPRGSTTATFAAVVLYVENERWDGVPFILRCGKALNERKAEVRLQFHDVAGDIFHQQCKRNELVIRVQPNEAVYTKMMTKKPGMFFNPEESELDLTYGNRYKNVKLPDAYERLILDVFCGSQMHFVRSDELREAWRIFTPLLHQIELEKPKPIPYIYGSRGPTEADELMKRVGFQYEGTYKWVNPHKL
Sequence of 26S proteasome non-ATPase regulatory subunit 14 (O00487 whole entry): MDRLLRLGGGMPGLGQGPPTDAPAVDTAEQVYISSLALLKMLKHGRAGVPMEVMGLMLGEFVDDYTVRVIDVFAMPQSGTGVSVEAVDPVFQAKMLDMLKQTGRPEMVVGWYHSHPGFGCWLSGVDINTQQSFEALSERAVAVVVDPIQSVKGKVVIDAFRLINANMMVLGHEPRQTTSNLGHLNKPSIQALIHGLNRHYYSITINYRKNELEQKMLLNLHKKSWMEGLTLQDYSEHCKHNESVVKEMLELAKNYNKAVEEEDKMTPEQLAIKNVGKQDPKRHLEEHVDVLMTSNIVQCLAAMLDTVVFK
Sequence of 72 kDa type IV collagenase (P08253 whole entry): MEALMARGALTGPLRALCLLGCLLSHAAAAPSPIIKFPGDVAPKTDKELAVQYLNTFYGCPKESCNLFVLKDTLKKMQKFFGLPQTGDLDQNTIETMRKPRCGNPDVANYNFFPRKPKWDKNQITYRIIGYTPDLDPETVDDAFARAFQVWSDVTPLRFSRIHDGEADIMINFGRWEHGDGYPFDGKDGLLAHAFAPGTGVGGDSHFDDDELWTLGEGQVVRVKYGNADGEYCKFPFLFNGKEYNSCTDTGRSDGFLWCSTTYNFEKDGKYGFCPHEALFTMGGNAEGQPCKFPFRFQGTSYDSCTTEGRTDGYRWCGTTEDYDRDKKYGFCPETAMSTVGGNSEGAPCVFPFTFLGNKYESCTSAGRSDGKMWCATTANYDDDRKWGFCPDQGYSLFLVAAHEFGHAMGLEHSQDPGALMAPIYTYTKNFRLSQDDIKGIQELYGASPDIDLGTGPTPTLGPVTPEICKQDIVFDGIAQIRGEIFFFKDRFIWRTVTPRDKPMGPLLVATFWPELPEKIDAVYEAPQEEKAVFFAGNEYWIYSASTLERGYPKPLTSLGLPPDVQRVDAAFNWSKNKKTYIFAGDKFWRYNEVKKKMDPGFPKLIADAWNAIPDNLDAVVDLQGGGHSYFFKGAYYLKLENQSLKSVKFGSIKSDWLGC
Sequence of FAD-linked sulfhydryl oxidase ALR (P55789 whole entry): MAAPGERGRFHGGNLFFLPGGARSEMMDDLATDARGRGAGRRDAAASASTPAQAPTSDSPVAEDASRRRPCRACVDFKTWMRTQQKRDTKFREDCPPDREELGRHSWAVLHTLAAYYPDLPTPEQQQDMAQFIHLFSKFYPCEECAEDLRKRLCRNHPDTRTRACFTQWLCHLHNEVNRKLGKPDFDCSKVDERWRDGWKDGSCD
Sequence of Cytochrome P450 2D6 (P10635 whole entry): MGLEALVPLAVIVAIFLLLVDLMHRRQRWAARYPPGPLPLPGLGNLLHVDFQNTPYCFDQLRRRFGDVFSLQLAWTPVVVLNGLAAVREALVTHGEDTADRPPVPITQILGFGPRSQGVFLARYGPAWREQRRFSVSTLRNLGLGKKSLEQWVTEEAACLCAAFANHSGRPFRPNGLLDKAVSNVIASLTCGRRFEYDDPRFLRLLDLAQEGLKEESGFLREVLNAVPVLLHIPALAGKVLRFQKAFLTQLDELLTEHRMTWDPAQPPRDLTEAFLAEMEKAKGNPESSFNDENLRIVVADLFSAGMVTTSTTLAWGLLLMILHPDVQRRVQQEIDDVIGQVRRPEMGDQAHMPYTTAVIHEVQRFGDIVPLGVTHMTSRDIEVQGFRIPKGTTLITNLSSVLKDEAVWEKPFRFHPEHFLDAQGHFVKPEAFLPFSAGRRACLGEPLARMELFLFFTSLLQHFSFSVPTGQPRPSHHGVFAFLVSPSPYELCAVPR
Sequence of Genome polyprotein (P29990 2492-3391 limits assumed): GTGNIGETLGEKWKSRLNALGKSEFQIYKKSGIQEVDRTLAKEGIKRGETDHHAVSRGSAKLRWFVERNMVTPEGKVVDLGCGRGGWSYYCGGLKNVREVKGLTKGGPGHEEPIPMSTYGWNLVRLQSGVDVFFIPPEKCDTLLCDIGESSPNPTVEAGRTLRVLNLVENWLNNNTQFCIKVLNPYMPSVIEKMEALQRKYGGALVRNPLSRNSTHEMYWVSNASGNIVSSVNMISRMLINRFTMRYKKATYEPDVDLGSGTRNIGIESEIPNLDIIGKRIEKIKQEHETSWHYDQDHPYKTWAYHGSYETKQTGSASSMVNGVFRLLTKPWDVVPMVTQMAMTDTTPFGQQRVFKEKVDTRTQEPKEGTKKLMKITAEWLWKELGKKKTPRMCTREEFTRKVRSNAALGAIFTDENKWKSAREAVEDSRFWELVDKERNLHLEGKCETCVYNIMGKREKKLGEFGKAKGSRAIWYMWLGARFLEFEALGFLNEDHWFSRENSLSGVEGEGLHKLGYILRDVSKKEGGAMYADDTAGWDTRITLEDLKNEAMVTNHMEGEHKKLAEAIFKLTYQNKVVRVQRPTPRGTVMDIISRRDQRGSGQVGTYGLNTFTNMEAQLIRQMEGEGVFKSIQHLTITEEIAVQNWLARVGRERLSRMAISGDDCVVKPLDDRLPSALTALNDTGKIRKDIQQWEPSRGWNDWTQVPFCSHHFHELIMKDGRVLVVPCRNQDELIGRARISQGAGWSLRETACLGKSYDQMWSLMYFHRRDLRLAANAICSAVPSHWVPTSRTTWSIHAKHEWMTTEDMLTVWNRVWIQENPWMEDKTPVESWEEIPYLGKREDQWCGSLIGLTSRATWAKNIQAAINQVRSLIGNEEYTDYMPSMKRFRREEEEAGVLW

CCN(CC)c1ccc([C@H]2[C@@H]3CCCC[C@]3(O)CCN2CC(=O)NCc2ccco2)cc1
AC50 [1]: 1.54 µM (active)

CCN1CCN(c2nc(C)nc3c2sc(=S)n3C)CC1
IC50 [2]: > 80 µM (inactive)

CC1CCC(NC(=O)c2ccc(NS(=O)(=O)c3ccc4[nH]c(O)nc4c3)cc2)CC1 (configuration not stated)
EC50 [3]: 27.8 µM (active) | EC50 [4]: 23.4 µM (active) | EC50 (H4): 8.97 µM (active) | AC50 (HeLa): 53.8 µM (active)

COc1ccc(-c2cn3cc(C)ccc3n2)cc1Br
IC50 [2]: > 80 µM (inactive)

COc1cc(C(F)(F)F)nc2c(Br)c(C(C)(C)C)nn12
EC50 [5]: 1.5 µM (active)

COC(=O)CN1C(=O)C(O)=C(C(C)=O)C1c1ccc([N+](=O)[O-])cc1 (configuration not stated)
IC50 [6]: > 100 µM (active)

O=C(O)c1ccccc1NC(=O)c1cc(-c2ccccc2)nc2ccccc12
AC50 [1]: 0.703 µM (active)

CCOC(=O)N1CCN(C(=O)CCCn2c(=O)[nH]c3ccccc3c2=O)CC1
IC50 [7]: 13.2 µM (active)

O=C(CCCSc1nc2ccccc2s1)NC1=NCCS1
IC50 [7]: 12 µM (active)

CCOc1cc(CNCCCN2CCOCC2)cc(Br)c1OCC(=O)Nc1cccc(C(F)(F)F)c1
EC50 [8]: 7.97 µM (active) | CC50 [9]: 12.4 µM (active) | EC50 [10]: 9.96 µM (active) | AC50 (Cytochrome P450 2D6): 14.1 µM (inconclusive) | EC50 [5]: 6.68 µM (active)

CCOC(=O)C1(CC2CC2)CCN(Cc2cc(Cl)c(O)c(OC)c2)CC1
EC50 [5]: 3.76 µM (active)

Cc1cc(O)c(C(C)C)cc1N=Cc1ccc([N+](=O)[O-])cc1
IC50 (Genome polyprotein): 90.1 µM (active) | IC50 [2]: 44.4 µM (inactive)

O=C1c2ccccc2S(=O)(=O)c2cc(N3CCOCC3)ccc21
IC50 [11]: > 100 µM (inactive) | IC50 (Prothrombin): 24 µM (active) | IC50 [12]: 10.9 µM (active)

CCOc1cc(/C=C2\SC(=S)N(NS(=O)(=O)c3ccc(C)cc3)C2=O)ccc1O
IC50 [11]: 73.8 µM (active) | IC50 (Prothrombin): 30.4 µM (active) | IC50 [12]: 36.9 µM (active)

O=C(c1ccc(-n2cnnn2)cc1)N1CCOCC1
IC50 [6]: > 100 µM (active)

Cc1c(P(=S)(c2ccccc2)c2ccccc2)[n+]2ccccc2n1C
AC50 [13]: 10.4 µM (active) | IC50 [11]: > 100 µM (inactive) | IC50 (Prothrombin): 62.8 µM (active) | IC50 [12]: 5.42 µM (active)

O=C(COc1cccc2cccnc12)N/N=C/c1cccn1-c1ccc(F)cc1
CC50 (Vero): > 25 µM (active)
